The text below walks through data of US20240207422A1, “NERVE TARGETING PEPTIDE CONJUGATES AND METHODS OF USE” (Alume Biosciences, Inc., priority 2022, published 2024).

The test deals with human nerve extract. Description: Phage display selection on plates coated with human nerve extract (Plated Nerve2), NextGen sequence counts. It is filed as binding. The note with it: unique sequence count (relative enrichment); Plated Nerve2 only. As for the experimental part:
Several m13 phage libraries were constructed expressing randomized variants of a parent peptide (QVPWEEPYYVVKKS-SGGL; SEQ ID NO: 576). In particular, the first 14 amino acids of the parent peptide were randomized using degenerate oligonucleotide synthesis to obtain a diverse set of peptides with a mutation rate of about 50% per residue.
To accomplish this, synthesis was carried out by the XXK codon design approach, where X is any base and K is G or T. To bias synthesis towards the parent sequence, synthesis was carried out at each X position with a mixture of about 70%-85% of the parent nucleotide and 15-30% of the remaining 3 nucleotides. The resulting molecules were inserted into fADL-1e (Antibody Design Laboratories), which is a type 3 phage display vector having a cloning site on the N-terminal side of the full-length gene III protein. The fusion proteins are directed to the periplasm by the PelB leader peptide, which is inserted in the vector […].
Collectively, the phage display libraries used in the screens comprised about 600 million peptides, with sequencing analysis confirming a mutation rate of about 50% per residue.
Phage libraries were independently processed, as follows, with five biological samples: two independent samples of excised human nerve tissue, one sample of a human nerve extract, and two independent samples of human muscle tissue, as follows:
Human Nerve Extracts: Phage libraries were incubated for up to 24 hours at 4° C. in 96 well plates that had been coated with a human nerve extract. Plates were then washed with PBS and phage were eluted using 0.2M glycine pH 2.0. Phage supernatants where then neutralized with Tris pH 9.0 prior to plating on TG1 bacteria and LB agar plates. Colonies were counted to determine titer followed by DNA preparation of pools of phage and NextGen sequencing. After rounds of selection, phage were pooled and amplified for iterative selection. Phage that eluted by 0.2M glycine pH 2.0 (the nerve binders) at each round were sequenced. NextGen sequencing of pools after 2, 3 and 4 rounds of selection were used to isolate candidate sequences that were further analyzed using bioinformatics.
NextGen sequencing of pools after 2, 3 and 4 rounds of selection were used to isolate candidate sequences from each of the five samples. These five data sets were then analyzed as described in the next section.
Peptide and vector sequences were translated starting at the first start codon in the nucleotide sequence. […] Trimmed peptides with identical sequences were combined and quantified according to their frequency (count).
Following processing, an R script was written to merge the unique peptide sequences (with counts 6 or greater) from the 5 different data sets to analyze the overlap between nerve and muscle binding activity.
For the single Nerve2, Nerve3, and Plated Nerve2 (pn2) subsets, the number of counts for each group was set at a threshold giving rise to at least 100 peptides. […] As highlighted in yellow in FIG. 1B, the representative group also included 6 unique peptides overlapping between nerve2 and nerve3, 200 unique peptides overlapping between nerve2 and plated nerve2 (at least 60 counts), 4 unique peptides overlapping between nerve3 and plated nerve2. Finally, as highlighted in green in FIG. 1B, the representative group also included […] common to the nerve2, nerve3, and plated nerve2 sets.
464 (ELPYEEPGTFVEKA) [compound 464]: the Count is on record as 62.
For the substance 465 (QFPWEEPYYVFTNS) [compound 465], the Count turned out to be 62.
Consider 466 (QIPGGERSYVLENS) [compound 466], for which the Count came to 62.
Under 467 (QITSDKPYYVVKNS) [compound 467] stands 60; under 468 (YDPSGEPYYRVNNH) [compound 468], 59.
469 (QVPRPASSYIGKTS) [compound 469] displayed a Count of 58.
470 (QIPLEGPTYVTNPS) [compound 470]: the Count was 57.
Next, 471 (AIPSGAPYYKVNKY) [compound 471]: 56; 472 (EFRSEQPYYFVNKY) [compound 472]: 55.
Turning to 473 (QIRWDETYYDIQKT) [compound 473], the Count is given as 55.
As for 474 (QLALEQQSYDAKMS) [compound 474], the Count is given as 55.
Under 475 (ALPWEHPWCVSKNC) [compound 475] stands 54; under 476 (HVPVLEPYDLVKKS) [compound 476], 54; under 477 (QIRSTEPYYVFKKT) [compound 477], 54.
Turning to 478 (QSPGTNPQNVLIKS) [compound 478], the Count was 54.
Under 479 (QITSVDPSSLAYRS) [compound 479] stands 53; under 480 (QMPSGAPYDATLNS) [compound 480], 53.
Under 481 (QNPWDEPSYVVKNV) [compound 481] stands 53.
Next, 482 (QSPFDETAYGLTHS) [compound 482]: 53; 483 (QVLFAKSYYSVKDS) [compound 483]: 53; 484 (RFPADEEHYVGKLS) [compound 484]: 53.
Substance 485 (YVPYEEQKYVVTKS) [compound 485] showed a Count of 53.
In turn, 486 (HSQGQTTEYVGKQS) [compound 486] displayed a Count of 52.
Under 487 (DFQSEETRNLAKMP) [compound 487] stands 51; under 488 (DVPWPAPYYAVSKY) [compound 488], 51; under 489 (QFPGEESHYVVRNS) [compound 489], 51.
490 (QFQWETPSHVINDS) [compound 490] yielded a Count of 51.
491 (QTPRQTLYYSVKAY) [compound 491] yielded a Count of 51.
Under 492 (HVAYQEPFVYQKTS) [compound 492] stands 50; under 493 (QISRGDTYYVMNKS) [compound 493], 50; under 494 (HIPGEEPSDGVRSY) [compound 494], 49.
Next, 495 (HLSVAEPYYAVRNS) [compound 495]: 49; 496 (QLQWQKSNWVGKIT) [compound 496]: 49.
Next, 497 (EIPWEGTYRLVKHS) [compound 497]: 48; 498 (HVPQKEPYYVVKTF) [compound 498]: 48; 499 (QFPLFTTFYNVEES) [compound 499]: 47.
As for 500 (QFPWETSYYIVKNS) [compound 500], the Count is recorded as 47.
Under 501 (QLAGGDPYVLPKLS) [compound 501] stands 47.
502 (DVASGEQSYIVVKY) [compound 502] displayed a Count of 46.
For the substance 503 (HVWLEDTISAEKKS) [compound 503], the Count was found to be 46.
Next, 504 (QVQWDGASSIVQKT) [compound 504]: 46; 505 (HFRGPEPYKFVENP) [compound 505]: 45.
Under 506 (HVPWEGPEYIVTQS) [compound 506] stands 45; under 507 (QFPRHDPNEVVHKS) [compound 507], 45; under 508 (QIPSEEPNYILKSS) [compound 508], 45.
Regarding 509 (QRPGDEPSYFVKNS) [compound 509], the Count was 45.
Next, 510 (ELTMEQPSYVGNVS) [compound 510]: 44; 511 (QLPWHEAFFGVNNG) [compound 511]: 44.
The substance 512 (QVLEKEPSSNVHKS) [compound 512] came in with a Count of 44.
In the case of 513 (HVPSYAPNYEIKES) [compound 513], the Count was determined as 43.
Under 514 (QHLGEEPSYSGEYA) [compound 514] stands 43; under 515 (SISSKDPYALVKYS) [compound 515], 43.
Next, 516 (QFPWDEPNYVVKNF) [compound 516]: 42; 517 (QLPFNEPYYSQQVS) [compound 517]: 42.
Turning to 518 (HLSMEAPYYGVKEY) [compound 518], the Count turned out to be 41.
On to 519 (HVLGEQPYSVVKTS) [compound 519], for which the Count worked out at 41.
Next, 520 (HVSWEEPRYIVKDS) [compound 520]: 41; 521 (QLPWEGPYYIVKKS) [compound 521]: 41; 522 (QTPAEKPYYVVKKY) [compound 522]: 41.
Next, 523 (HVPSQEWYYDLHKS) [compound 523]: 40; 524 (QFPWHKQFYVGKSS) [compound 524]: 40.
Under 525 (DFQIVGPSYVGKNS) [compound 525] stands 39.
With 526 (HLPSEKPWYDLDGS) [compound 526], the Count amounted to 39.
Next, 527 (HVSWSTSKYVVNHS) [compound 527]: 39; 528 (QISWEDPDYGVRKS) [compound 528]: 39.
Next, 529 (QVPCEQQSCVVKNS) [compound 529]: 39.
Next, 530 (LFTGQQSYYEVQES) [compound 530]: 38.
531 (LVSPTGPIYVMNKS) [compound 531] returned a Count of 38.
The substance 532 (QFASEEPYHVMKKP) [compound 532] yielded a Count of 38.
Under 533 (QFSRADSQYLVKNS) [compound 533] stands 38; under 534 (QIPLQDPYHVVEKS) [compound 534], 38.
Under 535 (QLLWGESYSIVKNY) [compound 535] stands 38.
Under 536 (QLPSQTQNYYDTNA) [compound 536] stands 38.
On to 537 (QLRSEDTYYTMQSY) [compound 537], for which the Count is 38.
Next, 538 (SVAGQQHYYVSTKP) [compound 538]: 38; 539 (HLPCKKSFYACKKH) [compound 539]: 37.
Under 540 (HVRFAEPYYAGKTS) [compound 540] stands 37.
Substance 541 (LLTGAEPYYLGKRS) [compound 541] registered a Count of 37.
Under 542 (QLPGAEAQNVVKYS) [compound 542] stands 37; under 543 (QLRFDEHHSVVTHS) [compound 543], 37; under 544 (QYPWEQRYYFERKS) [compound 544], 37.
Next, 545 (RVTWEGPYNSVKKS) [compound 545]: 37; 546 (DVALGESHYNVKKY) [compound 546]: 36; 547 (DVPNDLPSYLVKNS) [compound 547]: 36.
Next, 548 (EFPYQESEYIVKQS) [compound 548]: 36; 549 (GLPSKEPYYVVKPA) [compound 549]: 36; 550 (HVPWDDQYYVWRTN) [compound 550]: 36.
551 (HVQWDQTSYVVKNS) [compound 551] showed a Count of 36.
Next, 552 (HVTSDDSYYAVKNP) [compound 552]: 36.
In turn, 553 (QDPFGDLYYVTKMS) [compound 553] came in with a Count of 36.
